Columns and labels:
mouse TAAR1 = mouse TAAR1 (Mus musculus (Mouse), UniProt Q923Y8); test: Radioligand binding assay on mouse TAAR1
rat TAAR1 = rat TAAR1 (Rattus norvegicus (Rat), UniProt Q923Y9); test: Radioligand binding assay on rat TAAR1;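 also: membranes from HEK293 cells stably transfected with rat TAAR1, tritiated TAAR1 radioligand, 1 h incubation at 4 °C, nonspecific binding determined with excess unlabeled ligand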
Sequence of rat TAAR1 (Q923Y9 whole entry): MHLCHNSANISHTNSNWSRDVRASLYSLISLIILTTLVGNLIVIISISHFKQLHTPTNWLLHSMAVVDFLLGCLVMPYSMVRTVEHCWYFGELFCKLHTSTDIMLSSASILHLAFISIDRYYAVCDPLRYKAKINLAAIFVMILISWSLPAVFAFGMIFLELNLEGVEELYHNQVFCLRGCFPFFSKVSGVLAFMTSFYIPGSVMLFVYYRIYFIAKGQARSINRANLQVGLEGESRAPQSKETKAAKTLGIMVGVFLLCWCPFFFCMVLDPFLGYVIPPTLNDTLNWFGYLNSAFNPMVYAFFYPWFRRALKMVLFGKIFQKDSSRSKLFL
Protocol: Membrane Preparation and Radioligand Binding.
HEK-293 cells stably expressing rat TAAR1 were maintained at 37° C. and 5% CO2 in DMEM high glucose medium, containing fetal calf serum (10%, heat inactivated for 30 min at 56° C.), penicillin/streptomycin (1%), and 375 μg/ml geneticin (Gibco). Cells were released from culture flasks using trypsin/EDTA, harvested, washed twice with ice-cold PBS (without Ca^2+ and Mg^2+), pelleted at 1'000 rpm for 5 min at 4° C., frozen and stored at −80° C. Frozen pellets were suspended in 20 ml HEPES-NaOH (20 mM, pH 7.4) containing 10 mM EDTA and homogenized with a Polytron (PT 6000, Kinematica) at 14′000 rpm for 20 s. The homogenate was centrifuged at 48'000×g for 30 min at 4° C. Subsequently, the supernatant was removed and discarded, and the pellet resuspended in 20 ml HEPES-NaOH (20 mM, pH 7.4) containing 0.1 mM EDTA using the Polytron (20 s at 14'000 rpm). This procedure was repeated and the final pellet resuspended in HEPES-NaOH containing 0.1 mM EDTA and homogenized using the Polytron. Typically, aliquots of 2 ml membrane portions were stored at −80° C. With each new membrane batch the dissociation constant (Kd) was determined via a saturation curve. […] Nonspecific binding was defined as the amount of 3 [H]—(S)-4-[(ethyl-phenyl-amino)-methyl]-4,5-dihydro-oxazol-2-ylamine bound in the presence of 10 M unlabeled ligand. All compounds were tested at a broad range of concentrations (10 pM to 10 μM) in duplicates. […] The 96 deep well plates were incubated for 1 hr at 4° C. Incubations were terminated by rapid filtration through Unifilter-96 plates (Packard Instrument Company) and glass filters GF/C (Perkin Elmer) presoaked for 1 hr in polyethylenimine (0.3%) and washed 3 times with 1 ml of cold binding buffer. After addition of 45 μl of Microscint 40 (PerkinElmer) the Unifilter-96 plate was sealed and after 1 hr the radioactivity counted using a TopCount Microplate Scintillation Counter (Packard Instrument Company).

Sequence of mouse TAAR1 (Q923Y8 whole entry): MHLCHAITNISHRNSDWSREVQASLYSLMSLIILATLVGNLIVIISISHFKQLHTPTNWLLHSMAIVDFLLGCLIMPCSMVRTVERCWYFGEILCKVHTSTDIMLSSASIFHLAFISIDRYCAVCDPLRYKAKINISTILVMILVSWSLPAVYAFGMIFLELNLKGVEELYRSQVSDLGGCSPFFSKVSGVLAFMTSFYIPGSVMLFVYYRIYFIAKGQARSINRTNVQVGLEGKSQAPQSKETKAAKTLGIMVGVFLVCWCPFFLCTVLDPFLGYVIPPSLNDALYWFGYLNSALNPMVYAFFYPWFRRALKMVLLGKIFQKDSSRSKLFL

SMILES | Ki (mouse TAAR1) | Ki (rat TAAR1) | Kd (mouse TAAR1; read-out: dissociation constant (Kd) of the TAAR1 radioligand, mouse TAAR1 membranes, saturation curve, usual value) | Kd (rat TAAR1; read-out: dissociation constant (Kd) of the TAAR1 radioligand, rat TAAR1 membranes, saturation curve, usual value)
c1ccc([C@@H]2O[C@H]3CN[C@@H]2C3)nc1 [Example 104, (1R,3R,4R)-3-(2-Pyridyl)-2-oxa-5-azabicyclo[2.2.1]heptane] | > 1490 nM | > 1500 nM | – | –
c1ccc([C@H]2O[C@@H]3CN[C@H]2C3)nc1 [Example 105, (1S,3S,4S)-3-(2-Pyridyl)-2-oxa-5-azabicyclo[2.2.1]heptane] | 46.5 nM | 324 nM | – | –
Fc1ccccc1[C@@H]1O[C@H]2CN[C@@H]1C2 [Example 106, (1R,3S,4R)-3-(2-Fluorophenyl)-2-oxa-5-azabicyclo[2.2.1]heptane] | 1030 nM | 836 nM | – | –
CCN(C[C@H]1COC(N)=N1)c1ccccc1 [reference compound] | – | – | ~0.7 nM | ~2.3 nM
